#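 1) Cells in 96-well plates. 2) Compound, 48 h, 5 concentrations. 3) Linear interpolation between surrounding doses. 4) Unreached endpoint = highest concentration. TGI marks complete inhibition of growth.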
# Tests used:
# Experiment in all cases: NCI-60 cell line screen, 48 h
# HOP-92 NSCLC = tested on: HOP-92 NSCLC
# RPMI-8226 leukemia = tested on: RPMI-8226 leukemia
# CAKI-1 renal = tested on: CAKI-1 renal
# HCT-15 colon = tested on: HCT-15 colon
# SF-295 CNS = tested on: SF-295 CNS
# HCC-2998 colon = tested on: HCC-2998 colon
# SK-MEL-2 melanoma = tested on: SK-MEL-2 melanoma
# LOX IMVI melanoma = tested on: LOX IMVI melanoma
# EKVX NSCLC = tested on: EKVX NSCLC
# MCF7 breast = tested on: MCF7 breast
# DU-145 prostate = tested on: DU-145 prostate
# OVCAR-8 ovarian = tested on: OVCAR-8 ovarian
# A498 renal = tested on: A498 renal
# SF-539 CNS = tested on: SF-539 CNS
# ACHN renal = tested on: ACHN renal
# OVCAR-4 ovarian = tested on: OVCAR-4 ovarian
# HCT-116 colon = tested on: HCT-116 colon
# SNB-19 CNS = tested on: SNB-19 CNS
# COLO 205 colon = tested on: COLO 205 colon
# UACC-62 melanoma = tested on: UACC-62 melanoma
Structure (SMILES),TGI (HOP-92 NSCLC) [µM],TGI (RPMI-8226 leukemia) [µM],TGI (CAKI-1 renal) [µM],TGI (HCT-15 colon) [µM],TGI (SF-295 CNS) [µM],TGI (HCC-2998 colon) [µM],TGI (SK-MEL-2 melanoma) [µM],TGI (LOX IMVI melanoma) [µM],TGI (EKVX NSCLC) [µM],TGI (MCF7 breast) [µM],TGI (DU-145 prostate) [µM],TGI (OVCAR-8 ovarian) [µM],TGI (A498 renal) [µM],TGI (SF-539 CNS) [µM],TGI (ACHN renal) [µM],TGI (OVCAR-4 ovarian) [µM],TGI (HCT-116 colon) [µM],TGI (SNB-19 CNS) [µM],TGI (COLO 205 colon) [µM],TGI (UACC-62 melanoma) [µM]
CC1=NN(c2cccc(Cl)c2)C2(SCC(=O)N2c2nc3ccccc3s2)/C1=C\c1ccccc1O (configuration not stated),46.1,40.3,57.5,34.1,> 100,42,44.2,> 100,> 100,> 100,42.2,42,38.4,> 100,49,> 100,28.2,,,
NS(=O)(=O)c1cc(Cl)c(NC(=S)NC(=O)Nc2ccc(Cl)c(Cl)c2)c(Cl)c1,> 100,,> 100,> 100,> 100,> 100,90.6,> 100,> 100,53.8,> 100,> 100,84.4,90.7,> 100,> 100,> 100,> 100,33.6,90.2
O=c1[nH]c(Nc2nc3ccccc3[nH]2)nc(O)c1-c1ccccc1,> 100,,> 100,> 100,> 100,> 100,> 100,> 100,,> 100,> 100,> 100,> 100,> 100,> 100,> 100,> 100,> 100,> 100,> 100
O=C(CC(C(=O)c1ccsc1)c1ccc2c(c1)OCO2)c1ccccc1 (configuration not stated),> 100,> 100,> 100,> 100,> 100,> 100,,> 100,> 100,> 100,> 100,> 100,> 100,> 100,> 100,> 100,> 100,,> 100,> 100
O=c1c2sc(=S)n(-c3ccc(F)cc3)c2ncn1/N=C/c1ccc(F)cc1F,44,> 100,32.9,> 100,65.8,> 100,85.6,> 100,39.2,> 100,39.4,44.9,58.2,,> 100,46.8,> 100,62.6,> 100,> 100
CCN(CC)CCn1c(=O)c2cccnc2n2c3c(=O)n(C)c(=O)n(C)c3nc12,> 100,> 100,> 100,27.3,> 100,> 100,> 100,,> 100,> 100,> 100,> 100,,> 100,> 100,> 100,> 100,> 100,> 100,> 100
Cc1ccc(-c2[nH]c(=O)n(C3OC(CO)C(O)C(O)C3O)c(=O)c2C#N)cc1 (configuration not stated),> 100,> 100,> 100,> 100,> 100,> 100,> 100,,> 100,> 100,> 100,> 100,> 100,> 100,> 100,> 100,> 100,> 100,> 100,> 100
CCOC(=O)c1c(C)nc2c3ccccc3c(C#N)c(C)n12,> 100,> 100,> 100,> 100,> 100,> 100,> 100,> 100,> 100,> 100,> 100,> 100,> 100,> 100,> 100,> 100,> 100,> 100,,> 100
[O-][n+]1ccccc1Sc1nc(Sc2cccc[n+]2[O-])nc(Sc2cccc[n+]2[O-])n1,3.03,,2.11,2.93,11.1,2.89,3.71,4,5.81,2.47,10.2,1.99,8.37,4.06,4.06,4.74,2.53,26.1,2.3,3.67
COc1ccc2c(c1)OCC1Cc3ccccc3OC21 (configuration not stated),> 100,> 100,> 100,> 100,> 100,> 100,> 100,> 100,> 100,> 100,> 100,> 100,> 10,> 100,> 100,,> 100,,> 100,> 100
Cc1cc2c3c(nc4ccccc42)C(=O)c2ccccc2-c3n1,> 100,> 100,60.7,16.8,60.4,53.9,47.8,,> 100,51.2,> 100,34.8,42.3,61.2,> 100,> 100,75.4,> 100,> 100,4.06
CCOC(=O)c1nc2c(nc1C(=O)OCC)C(=O)c1ccccc1C2=O,33.6,6.87,3.26,> 34.4,1.55,2.97,1.5,,3.5,1.17,2.48,6.56,4.38,1.71,2.02,1.95,4.25,3.59,4.36,0.956
